Legend:
Assay type in all cases: in vivo
Setaria viridis [1] = assay: Pre-emergence herbicidal effect; settings: for Pre-emergence effectiveness SETVI: visual score after 3 weeks
Source text: (§1) Seeds of monocotyledonous and dicotyledonous weed plants and crop plants are laid out in wood-fibre pots in sandy loam and covered with soil. The compounds according to the invention formulated in the form of wettable powders (WP) or as emulsion concentrates (EC) are then applied as aqueous suspension or emulsion at a water application rate of 600 to 800 l/ha (converted) with the addition of 0.2% wetting agent to the surface of the covering soil. After the treatment, the pots are placed in a greenhouse and kept under good growth conditions for the trial plants. The damage to the test plants is scored visually after a test period of 3 weeks by comparison with untreated controls (herbicidal activity in percent (%): 100% activity=the plants have died, 0% activity=like control plants).

Lolium multiflorum [2] = assay: Pre-emergence herbicidal effect; settings: visual score after 3 weeks
Source text: as §1

Alopecurus myosuroides [3] = assay: Pre-emergence herbicidal effect; settings: visual score after 3 weeks
Source text: as §1

Veronica persica [4] = assay: Pre-emergence herbicidal effect; settings: 320 g/ha, visual score after 3 weeks
Source text: as §1

Cyperus esculentus = assay: Pre-emergence herbicidal effect; settings: for Pre-emergence effectiveness CYPES: visual score after 3 weeks
Source text: as §1

Avena fatua [5] = assay: Pre-emergence herbicidal effect; settings: for Pre-emergence effectiveness AVEFA: visual score after 3 weeks
Source text: as §1

Echinochloa crus-galli [6] = assay: Pre-emergence herbicidal effect; settings: visual score after 3 weeks
Source text: as §1

Setaria viridis [7] = assay: Post-emergence herbicidal effect; settings: visual assessment after about 3 weeks
Description: (§2) Seeds of monocotyledonous and dicotyledonous weed and crop plants are laid out in sandy loam in wood-fibre pots, covered with soil and cultivated in a greenhouse under good growth conditions. 2 to 3 weeks after sowing, the test plants are treated at the one-leaf stage. The compounds according to the invention, formulated in the form of wettable powders (WP) or as emulsion concentrates (EC), are then sprayed as aqueous suspension or emulsion at a water application rate of 600 to 800 l/ha (converted) with the addition of 0.2% of wetting agent onto the green parts of the plants. After the test plants have been left to stand in the greenhouse under optimal growth conditions for about 3 weeks, the action of the preparations is assessed visually in comparison to untreated controls (herbicidal action in percent (%): 100% activity=the plants have died, 0% activity=like control plants).

Lolium multiflorum [8] = assay: Post-emergence herbicidal effect; settings: visual assessment after about 3 weeks
Description: as §2

Alopecurus myosuroides [9] = assay: Post-emergence herbicidal effect; settings: for Comparison data for post-emergence effect ALOMY: 20 g a.i./ha; for Post-emergence effectiveness ALOMY: visual assessment after about 3 weeks
Description: as §2

Avena fatua [10] = assay: Post-emergence herbicidal effect; settings: for Comparison data for post-emergence effect AVEFA: 20 g a.i./ha; for Post-emergence effectiveness AVEFA: visual assessment after about 3 weeks
Description: as §2

Echinochloa crus-galli [11] = assay: Post-emergence herbicidal effect; settings: visual assessment after about 3 weeks
Description: as §2

PHBPU = assay: Post-emergence herbicidal effect; settings: 20 g a.i./ha
Description: as §2

Polygonum convolvulus = assay: Post-emergence herbicidal effect; settings: 80 g/ha, visual assessment after about 3 weeks
Description: as §2

Amaranthus retroflexus = assay: Pre-emergence herbicidal effect; settings: 320 g/ha, visual score after 3 weeks
Source text: as §1

Veronica persica [12] = assay: Post-emergence herbicidal effect; settings: 80 g/ha, visual assessment after about 3 weeks
Description: as §2

Viola tricolor = assay: Pre-emergence herbicidal effect; settings: 320 g/ha, visual score after 3 weeks
Source text: as §1

SMILES	Pre-emergence effectiveness SETVI (Setaria viridis [1]; 80 g/ha) [%]	Pre-emergence effectiveness SETVI (Setaria viridis [1]; 320 g/ha) [%]	Pre-emergence effectiveness LOLMU (Lolium multiflorum [2]; 80 g/ha) [%]	Pre-emergence effectiveness LOLMU (Lolium multiflorum [2]; 320 g/ha) [%]	Pre-emergence effectiveness ALOMY (Alopecurus myosuroides [3]; 80 g/ha) [%]	Pre-emergence effectiveness ALOMY (Alopecurus myosuroides [3]; 320 g/ha) [%]	Pre-emergence effectiveness VERPE (Veronica persica [4]) [%]	Pre-emergence effectiveness CYPES (Cyperus esculentus; 320 g/ha) [%]	Pre-emergence effectiveness AVEFA (Avena fatua [5]; 80 g/ha) [%]	Pre-emergence effectiveness AVEFA (Avena fatua [5]; 320 g/ha) [%]	Pre-emergence effectiveness ECHCG (Echinochloa crus-galli [6]; 80 g/ha) [%]	Pre-emergence effectiveness ECHCG (Echinochloa crus-galli [6]; 320 g/ha) [%]	Post-emergence effectiveness SETVI (Setaria viridis [7]; 20 g/ha) [%]	Post-emergence effectiveness SETVI (Setaria viridis [7]; 80 g/ha) [%]	Post-emergence effectiveness LOLMU (Lolium multiflorum [8]; 20 g/ha) [%]	Post-emergence effectiveness LOLMU (Lolium multiflorum [8]; 80 g/ha) [%]	Post-emergence effectiveness ALOMY (Alopecurus myosuroides [9]; 20 g/ha) [%]	Post-emergence effectiveness ALOMY (Alopecurus myosuroides [9]; 80 g/ha) [%]	Post-emergence effectiveness ECHCG (Echinochloa crus-galli [11]; 20 g/ha) [%]	Post-emergence effectiveness ECHCG (Echinochloa crus-galli [11]; 80 g/ha) [%]	other results
CC#Cc1cc(C)c(C2=C(O)C3(CCC(COC)CC3)NC2=O)c(CC)c1 (stereo not drawn) [Example I-5]	100	100	100	100	100	100	80	100	100	100	100	100	90	100	90	100	90	100	100	100	Comparison data for post-emergence effect ALOMY (Alopecurus myosuroides [9]): 90%; Comparison data for post-emergence effect AVEFA (Avena fatua [10]): 90%; Post-emergence effectiveness AVEFA (Avena fatua [10]; 20 g/ha): 90%; Post-emergence effectiveness AVEFA (Avena fatua [10]; 80 g/ha): 100%; Comparison data for post-emergence effect PHBPU (PHBPU): 30%
CCc1cc(C#CC2CC2)cc(C)c1C1=C(O)C2(CCC(COC)CC2)NC1=O (stereo not drawn) [Example I-7]	90	100	100	100	80	100	–	–	–	–	100	100	100	100	90	100	90	100	100	100	Post-emergence effectiveness POLCO (Polygonum convolvulus): 80%; Post-emergence effectiveness AVEFA (Avena fatua [10]; 80 g/ha): 100%
CCc1cc(C#CC2CC2)cc(C)c1C1=C(O)C2(CCC(COC)C2)NC1=O (stereo not drawn) [Example I-11]	90	100	100	100	100	100	80	100	–	80	100	100	100	100	90	100	80	100	100	100	Post-emergence effectiveness AVEFA (Avena fatua [10]; 20 g/ha): 80%; Post-emergence effectiveness AVEFA (Avena fatua [10]; 80 g/ha): 100%
CC#Cc1cc(CC)c(C2=C(OC(=O)C(C)C)C3(CCC(CCOC)CC3)NC2=O)c(CC)c1 (stereo not drawn) [Example Ia-5]	100	100	100	100	100	100	100	100	80	100	100	100	–	–	–	–	–	–	–	–	Pre-emergence effectiveness AMARE (Amaranthus retroflexus): 100%; Pre-emergence effectiveness CYPES (Cyperus esculentus; 80 g/ha): 100%
CC#Cc1cc(C)c(C2=C(OC(=O)C(C)C)C3(CCC(COC)CC3)NC2=O)c(CC)c1 (stereo not drawn) [Ia-3]	100	100	100	100	90	100	90	–	80	90	100	100	90	100	–	100	90	100	90	100	Post-emergence action VERPE (Veronica persica [12]): 90%
CC#Cc1cc(C)c(C2=C(OC(=O)C(C)C)C3(CCC(CCOC)CC3)NC2=O)c(CC)c1 (stereo not drawn) [Ia-4]	100	100	–	90	–	80	90	–	–	–	100	100	–	–	–	–	–	–	–	–	Pre-emergence effectiveness VIOTR (Viola tricolor): 100%
CC#Cc1cc(C)c(C2=C(OC(=O)OCC)C3(CCC(OC)CC3)NC2=O)c(CC)c1 (stereo not drawn) [WO 2015/040114, reference compound]	–	–	–	–	–	–	–	–	–	–	–	–	–	–	–	–	–	–	–	–	Comparison data for pre-emergence effectiveness SETVI (Setaria viridis [1]; 20 g a.i./ha): 80%; Comparison data for pre-emergence effectiveness CYPES (Cyperus esculentus; 20 g a.i./ha): 0%; Comparison data for pre-emergence effectiveness AVEFA (Avena fatua [5]; 20 g a.i./ha): 50%; Comparison data for post-emergence effect ALOMY (Alopecurus myosuroides [9]): 80%; Comparison data for post-emergence effect AVEFA (Avena fatua [10]): 70%; Comparison data for post-emergence effect PHBPU (PHBPU): 0%

From patent US10899709B2, “Novel-alkynyl-substituted 3-phenylpyrrolidine-2,4-diones and use thereof as herbicides” (BAYER CROPSCIENCE AKTIENGESELLSCHAFT, priority 2015, dated 2021)
